Laboratory results taken from patent US20230072683A1, “PYRIDO-PYRIMIDIN DERIVATIVES AND PHARMACEUTICAL COMPOSITION, FOR USE IN PREVENTING OR TREATING PI3 KINASE RELATED DISEASES, COMPRISING SAME AS ACTIVE INGREDIENT” (BORYUNG PHARMACEUTICAL CO., LTD, priority 2019, published 2023).

How the values were obtained:
[1] = molecular target: PI3K-δ (PI3K(p1108/p857) (h)) (Homo sapiens, UniProt O00329); experiment: Evaluation of inhibitory activity against PI3K-δ (HTRF kinase assay); assay type: biochemical; conditions: compound concentration 0.01 μM; read-out: EXP_VALUE(% Inhibition) PI3K-δ 0.01 μM
In short: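 HTRF read-out (665/620 nm ratio ×10000) used Eu-labelled anti-GST, GST-tagged GRP1 PH domain and streptavidin-allophycocyanin after EDTA/PIP3 stop.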

[2] = molecular target: DNA-PK(h) (Homo sapiens, UniProt P78527); experiment: Evaluation of inhibitory activity against DNA-PK (HTRF kinase assay, GST-cMyc-p53 substrate); assay type: biochemical; conditions: compound concentration 0.01 μM; read-out: EXP_VALUE(% Inhibition) DNA-PK(h) 0.01 μM
In short: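 p53 Ser15 phosphorylation by human DNA-PK was measured by time-resolved FRET ratio (665/620 nm ×10000) using Eu-labelled anti-phospho-Ser15 and d2 anti-GST antibodies. Substrate GST-cMyc-p53 at 50 μM; Mg/ATP-initiated, 30 min at room temperature, EDTA stop.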

Chain of PI3K-δ (PI3K(p1108/p857) (h)) (O00329 whole entry, the tested form may be a part): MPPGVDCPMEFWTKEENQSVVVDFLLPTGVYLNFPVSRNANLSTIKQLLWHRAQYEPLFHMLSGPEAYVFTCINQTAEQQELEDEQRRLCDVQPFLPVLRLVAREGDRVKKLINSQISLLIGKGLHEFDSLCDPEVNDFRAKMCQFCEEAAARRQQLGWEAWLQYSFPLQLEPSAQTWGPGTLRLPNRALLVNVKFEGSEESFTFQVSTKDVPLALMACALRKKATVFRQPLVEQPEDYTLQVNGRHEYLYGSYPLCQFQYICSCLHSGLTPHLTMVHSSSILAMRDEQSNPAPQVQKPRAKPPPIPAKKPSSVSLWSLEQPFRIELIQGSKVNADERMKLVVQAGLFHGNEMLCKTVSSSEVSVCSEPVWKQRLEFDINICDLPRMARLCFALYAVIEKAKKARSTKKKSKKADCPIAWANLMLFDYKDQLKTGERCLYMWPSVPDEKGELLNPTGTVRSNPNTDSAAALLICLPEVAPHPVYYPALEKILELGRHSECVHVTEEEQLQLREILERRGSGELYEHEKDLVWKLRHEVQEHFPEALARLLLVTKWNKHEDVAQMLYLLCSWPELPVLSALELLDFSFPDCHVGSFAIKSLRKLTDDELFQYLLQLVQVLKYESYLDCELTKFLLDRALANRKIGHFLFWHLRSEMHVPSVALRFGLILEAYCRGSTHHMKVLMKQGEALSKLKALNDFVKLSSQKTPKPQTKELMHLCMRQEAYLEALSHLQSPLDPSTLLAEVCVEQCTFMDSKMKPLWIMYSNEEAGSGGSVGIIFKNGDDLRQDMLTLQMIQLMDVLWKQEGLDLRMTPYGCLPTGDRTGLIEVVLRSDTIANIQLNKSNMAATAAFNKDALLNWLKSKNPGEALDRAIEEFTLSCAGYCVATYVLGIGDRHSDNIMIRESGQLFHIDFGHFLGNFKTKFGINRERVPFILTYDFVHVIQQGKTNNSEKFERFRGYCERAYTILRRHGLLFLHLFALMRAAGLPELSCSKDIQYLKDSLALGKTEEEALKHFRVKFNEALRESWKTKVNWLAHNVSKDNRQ
Chain of PI3K-δ (PI3K(p1108/p857) (h)) (P27986 whole entry partner, the tested form may be a part): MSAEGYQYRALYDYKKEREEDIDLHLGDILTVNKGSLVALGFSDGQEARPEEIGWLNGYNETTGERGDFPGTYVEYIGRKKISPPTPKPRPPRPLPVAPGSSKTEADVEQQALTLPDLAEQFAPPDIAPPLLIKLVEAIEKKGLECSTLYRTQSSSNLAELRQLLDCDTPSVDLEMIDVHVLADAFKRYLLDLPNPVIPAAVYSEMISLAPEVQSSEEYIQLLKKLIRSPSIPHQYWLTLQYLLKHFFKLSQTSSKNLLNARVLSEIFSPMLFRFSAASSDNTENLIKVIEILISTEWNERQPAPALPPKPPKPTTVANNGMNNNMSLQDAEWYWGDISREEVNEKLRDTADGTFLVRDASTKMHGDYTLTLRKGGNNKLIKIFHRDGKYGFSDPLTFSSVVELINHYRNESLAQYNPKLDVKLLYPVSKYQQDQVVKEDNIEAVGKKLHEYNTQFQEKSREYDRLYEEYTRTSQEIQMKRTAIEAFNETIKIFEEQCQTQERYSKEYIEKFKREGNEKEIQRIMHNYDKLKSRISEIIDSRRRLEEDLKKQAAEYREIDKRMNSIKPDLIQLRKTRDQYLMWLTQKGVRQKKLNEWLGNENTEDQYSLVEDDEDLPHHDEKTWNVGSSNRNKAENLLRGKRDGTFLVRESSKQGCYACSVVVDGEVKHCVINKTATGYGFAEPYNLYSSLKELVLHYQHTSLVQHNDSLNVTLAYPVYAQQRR

Row | SMILES | inhibition at 0.01 µM [1] [%] | inhibition at 0.01 µM [2] [%]
1 | C[C@H](Nc1ncnc2[nH]ccc(=O)c12)c1c(Cl)c2cccc(-c3cnc(C4CC4)nc3)c2c(=O)n1-c1ccccc1 [Example 168, (S)-4-((1-(4-chloro-8-(2-cyclopropylpyrimidin-5-yl)-1-oxo-2-phenyl-1,2-dihydroisoquinolin-3-yl)ethyl)amino)pyrido[2,3-d]pyrimidin-5(8H)-one] | 58 | 67
2 | COc1cc(OC)cc(-c2cccc3c(Cl)c([C@H](C)Nc4ncnc5[nH]ccc(=O)c45)n(-c4ccccc4)c(=O)c23)c1 [Example 169, (S)-4-((1-(4-chloro-8-(3,5-dimethoxyphenyl)-1-oxo-2-phenyl-1,2-dihydroisoquinolin-3-yl)ethyl)amino)pyrido[2,3-d]pyrimidin-5(8H)-one] | 40 | 67
3 | COc1cc(-c2cccc3c(Cl)c([C@H](C)Nc4ncnc5[nH]ccc(=O)c45)n(-c4ccccc4)c(=O)c23)cnc1OC [Example 170, (S)-4-((1-(4-chloro-8-(5,6-dimethoxypyridin-3-yl)-1-oxo-2-phenyl-1,2-dihydroisoquinolin-3-yl)ethyl)amino)pyrido[2,3-d]pyrimidin-5(8H)-one] | 35 | 66
4 | COc1ncc(-c2cccc3c(Cl)c([C@H](C)Nc4ncnc5[nH]ccc(=O)c45)n(-c4ccccc4)c(=O)c23)cn1 [Example 171, (S)-4-((1-(4-chloro-8-(2-methoxypyrimidin-5-yl)-1-oxo-2-phenyl-1,2-dihydroisoquinolin-3-yl)ethyl)amino)pyrido[2,3-d]pyrimidin-5(8H)-one] | 58 | 62
5 | C[C@H](Nc1ncnc2[nH]ccc(=O)c12)c1c(Cl)c2cccc(-c3ccc(N)nc3)c2c(=O)n1-c1ccccc1 [Example 172, (S)-4-((1-(8-(6-aminopyridin-3-yl)-4-chloro-1-oxo-2-phenyl-1,2-dihydroisoquinolin-3-yl)ethyl)amino)pyrido[2,3-d]pyrimidin-5(8H)-one] | 53 | 82
6 | C[C@H](Nc1ncnc2[nH]ccc(=O)c12)c1c(Cl)c2cccc(-c3cccc(N4CCOCC4)c3)c2c(=O)n1-c1ccccc1 [Example 173, (S)-4-((1-(4-chloro-8-(3-morpholinophenyl)-1-oxo-2-phenyl-1,2-dihydroisoquinolin-3-yl)ethyl)amino)pyrido[2,3-d]pyrimidin-5(8H)-one] | 40 | 86
7 | C[C@H](Nc1ncnc2[nH]ccc(=O)c12)c1c(Cl)c2cccc(-c3cnc(N4CCOCC4)nc3)c2c(=O)n1-c1ccccc1 [Example 174, (S)-4-((1-(4-chloro-8-(2-morpholinopyrimidin-5-yl)-1-oxo-2-phenyl-1,2-dihydroisoquinolin-3-yl)ethyl)amino)pyrido[2,3-d]pyrimidin-5(8H)-one] | 65 | 67
8 | C[C@H](Nc1ncnc2[nH]ccc(=O)c12)c1c(Cl)c2cccc(-c3ccc(N4CCOCC4)nc3)c2c(=O)n1-c1ccccc1 [Example 175, (S)-4-((1-(4-chloro-8-(6-morpholinopyridin-3-yl)-1-oxo-2-phenyl-1,2-dihydroisoquinolin-3-yl)ethyl)amino)pyrido[2,3-d]pyrimidin-5(8H)-one] | 70 | 80
9 | C[C@H](Nc1ncnc2[nH]ccc(=O)c12)c1c(Cl)c2cccc(-c3ccc(C4CCOCC4)cc3)c2c(=O)n1-c1ccccc1 [Example 176, (S)-4-((1-(4-chloro-1-oxo-2-phenyl-8-(4-(tetrahydro-2H-pyran-4-yl)phenyl)-1,2-dihydroisoquinolin-3-yl)ethyl)amino)pyrido[2,3-d]pyrimidin-5(8H)-one] | 19 | 48
10 | COc1cc(-c2cccc3c(Cl)c([C@H](C)Nc4ncnc5[nH]ccc(=O)c45)n(-c4ccccc4)c(=O)c23)cc(OC)c1C [Example 177, (S)-4-((1-(4-chloro-8-(3,5-dimethoxy-4-methylphenyl)-1-oxo-2-phenyl-1,2-dihydroisoquinolin-3-yl)ethyl)amino)pyrido[2,3-d]pyrimidin-5(8H)-one] | 28 | 54
11 | C[C@H](Nc1ncnc2[nH]ccc(=O)c12)c1c(Cl)c2cccc(-c3ccc([Si](C)(C)C)cc3)c2c(=O)n1-c1ccccc1 [Example 178, (S)-4-((1-(4-chloro-1-oxo-2-phenyl-8-(4-(trimethylsilyl)phenyl)-1,2-dihydroisoquinolin-3-yl)ethyl)amino)pyrido[2,3-d]pyrimidin-5(8H)-one] | 9 | -4
12 | C[C@H](Nc1ncnc2[nH]ccc(=O)c12)c1c(Cl)c2cccc(-c3ccc(N4CCN(C)CC4)cc3)c2c(=O)n1-c1ccccc1 [Example 179, (S)-4-((1-(4-chloro-8-(4-(4-methylpiperazin-1-yl)phenyl)-1-oxo-2-phenyl-1,2-dihydroisoquinolin-3-yl)ethyl)amino)pyrido[2,3-d]pyrimidin-5(8H)-one] | 86 | 91
13 | CC(C)Oc1cc(-c2cccc3c(Cl)c([C@H](C)Nc4ncnc5[nH]ccc(=O)c45)n(-c4ccccc4)c(=O)c23)ccn1 [Example 180, (S)-4-((1-(4-chloro-8-(2-isopropoxypyridin-4-yl)-1-oxo-2-phenyl-1,2-dihydroisoquinolin-3-yl)ethyl)amino)pyrido[2,3-d]pyrimidin-5(8H)-one] | 83 | 59
14 | C[C@H](Nc1ncnc2[nH]ccc(=O)c12)c1c(Cl)c2cccc(-c3ccc(C(F)(F)F)nc3)c2c(=O)n1-c1ccccc1 [Example 181, (S)-4-((1-(4-chloro-1-oxo-2-phenyl-8-(6-(trifluoromethyl)pyridin-3-yl)-1,2-dihydroisoquinolin-3-yl)ethyl)amino)pyrido[2,3-d]pyrimidin-5(8H)-one] | 101 | 61
15 | CC(C)Oc1ncc(-c2cccc3c(Cl)c([C@H](C)Nc4ncnc5[nH]ccc(=O)c45)n(-c4ccccc4)c(=O)c23)cn1 [Example 182, (S)-4-((1-(4-chloro-8-(2-isopropoxypyrimidin-5-yl)-1-oxo-2-phenyl-1,2-dihydroisoquinolin-3-yl)ethyl)amino)pyrido[2,3-d]pyrimidin-5(8H)-one] | 85 | 64
16 | CCOc1ccc(-c2cccc3c(Cl)c([C@H](C)Nc4ncnc5[nH]ccc(=O)c45)n(-c4ccccc4)c(=O)c23)cn1 [Example 183, (S)-4-((1-(4-chloro-8-(6-ethoxypyridin-3-yl)-1-oxo-2-phenyl-1,2-dihydroisoquinolin-3-yl)ethyl)amino)pyrido[2,3-d]pyrimidin-5(8H)-one] | 85 | 68
17 | C[C@H](Nc1ncnc2[nH]ccc(=O)c12)c1c(Cl)c2cccc(-c3cnc(OCC(F)(F)F)nc3)c2c(=O)n1-c1ccccc1 [Example 184, (S)-4-((1-(4-chloro-1-oxo-2-phenyl-8-(2-(2,2,2-trifluoroethoxy)pyrimidin-5-yl)-1,2-dihydroisoquinolin-3-yl)ethyl)amino)pyrido[2,3-d]pyrimidin-5(8H)-one] | 78 | 38
18 | C[C@H](Nc1ncnc2[nH]ccc(=O)c12)c1c(Cl)c2cccc(-c3ccc(Oc4ccccc4)nc3)c2c(=O)n1-c1ccccc1 [Example 185, (S)-4-((1-(4-chloro-1-oxo-8-(6-phenoxypyridin-3-yl)-2-phenyl-1,2-dihydroisoquinolin-3-yl)ethyl)amino)pyrido[2,3-d]pyrimidin-5(8H)-one] | 95 | 33
19 | COc1ncc(-c2cccc3c(Cl)c([C@H](C)Nc4ncnc5[nH]ccc(=O)c45)n(-c4ccccc4)c(=O)c23)cc1F [Example 186, (S)-4-((1-(4-chloro-8-(5-fluoro-6-methoxypyridin-3-yl)-1-oxo-2-phenyl-1,2-dihydroisoquinolin-3-yl)ethyl)amino)pyrido[2,3-d]pyrimidin-5(8H)-one] | 94 | 49
20 | COc1ncc(-c2cccc3c(Cl)c([C@H](C)Nc4ncnc5[nH]ccc(=O)c45)n(-c4ccccc4)c(=O)c23)cc1Cl [Example 187, (S)-4-((1-(4-chloro-8-(5-chloro-6-methoxypyridin-3-yl)-1-oxo-2-phenyl-1,2-dihydroisoquinolin-3-yl)ethyl)amino)pyrido[2,3-d]pyrimidin-5(8H)-one] | 79 | 45
21 | CCOc1ncc(-c2cccc3c(Cl)c([C@H](C)Nc4ncnc5[nH]ccc(=O)c45)n(-c4ccccc4)c(=O)c23)cn1 [Example 188, (S)-4-((1-(4-chloro-8-(2-ethoxypyrimidin-5-yl)-1-oxo-2-phenyl-1,2-dihydroisoquinolin-3-yl)ethyl)amino)pyrido[2,3-d]pyrimidin-5(8H)-one] | 101 | 67
22 | C[C@H](Nc1ncnc2[nH]ccc(=O)c12)c1c(Cl)c2cccc(-c3ccnc(N4CCOCC4)c3)c2c(=O)n1-c1ccccc1 [Example 190, (S)-4-((1-(4-chloro-8-(2-morpholinopyridin-4-yl)-1-oxo-2-phenyl-1,2-dihydroisoquinolin-3-yl)ethyl)amino)pyrido[2,3-d]pyrimidin-5(8H)-one] | 87 | 85
23 | COc1ccc(-c2cccc3c(Cl)c([C@H](C)Nc4ncnc5[nH]ccc(=O)c45)n(-c4ccccc4)c(=O)c23)cc1F [Example 191, (S)-4-((1-(4-chloro-8-(3-fluoro-4-methoxyphenyl)-1-oxo-2-phenyl-1,2-dihydroisoquinolin-3-yl)ethyl)amino)pyrido[2,3-d]pyrimidin-5(8H)-one] | 85 | 102
